From paper PMC8297954 (Frontiers in Microbiology, 2021)
“Also recorded” adds a separate entry of the source. Like-named read-outs stand apart in the source and are kept apart here.

Columns and labels:
[1] = tested on: transmembrane domain of SARS CoV E protein; details: lipid bilayers ref Torres et al., 2007; cited from earlier work
[2] = tested on: viral protein U of human immunodeficiency type 1 virus; details: cited from earlier work
HCoV-229E E protein = details: cited from earlier work
HCoV-229E = details: cited from earlier work
MHV E protein = details: cited from earlier work
MHV = details: cited from earlier work
SARS CoV 3a protein = details: Xenopus oocytes ref Schwarz et al., 2014; cited from earlier work

Molecule | MTT pRK control (HEK293 cells; human) | effect on viability of control cells at increasing concentrations (HEK293 cells) | inhibition of viral protein U [2] | also measured
CCCCC[C@H](O)CC(=O)CCc1ccc(O)c(OC)c1 [6-Gingerol, 6-gingerol] |  |  |  | MTT pRK control (HEK293 cells): neutral
CCCCCCC[C@H](O)CC(=O)CCc1ccc(O)c(OC)c1 [8-Gingerol, 8-gingerol] | 50 ↓ |  |  | 
NC12CC3CC(CC(C3)C1)C2 [Amantadine, amantadine, reference compound] |  |  |  | MTT pRK control (HEK293 cells): neutral; inhibition of wild-type transmembrane peptides [1]: inhibited
O=c1cc(-c2ccc(O)cc2)oc2cc(O)cc(O)c12 [Apigenin, apigenin] | 5–10↑ 20–50↓ | cytotoxic |  | concentrations that were cytotoxic / induced cell death (HEK293 cells; human): 20 to 50 µM
O=C(O[C@@H]1Cc2c(O)cc(O)cc2O[C@@H]1c1cc(O)c(O)c(O)c1)c1cc(O)c(O)c(O)c1 [EGCG, epigallocatechin gallate] | 5–50 ↑ |  |  | 
O=c1c(-c2ccc(O)cc2)coc2cc(O)cc(O)c12 [Genistein, genistein] | 20–50 ↑ | proliferative | inhibits; also recorded: able to inhibit | 
NC(N)=NC(=O)c1nc(Cl)c(N2CCCCCC2)nc1N [HMA, 5-(N,N-hexamethylene)amiloride] | 10–50 ↓ | cytotoxic |  | inhibition of E protein ion channel conductance (HCoV-229E E protein): inhibits; inhibition of virus replication (HCoV-229E): inhibits replication; inhibition of E protein ion channel conductance (MHV E protein): inhibits; inhibition of virus replication (MHV): inhibits replication
O=c1c(O)c(-c2ccc(O)cc2)oc2cc(O)cc(O)c12 [Kaempferol, kaempferol] | 5–50 ↑ | proliferative | not | inhibition of 3a ion channel (SARS CoV 3a protein): blocks
O=C1C[C@@H](c2ccc(O)cc2)Oc2cc(O)cc(O)c21 [Naringenin, naringenin] | 10–50 ↑ |  |  | 
COc1ccc(-c2cc(=O)c3c(OC)c(OC)c(OC)c(OC)c3o2)cc1OC [Nobiletin, nobiletin] | 5–50 ↑ |  |  | 
O=c1c(O)c(-c2ccc(O)c(O)c2)oc2cc(O)cc(O)c12 [Quercetin, quercetin] | 10–50 ↑ | proliferative | not | 
Oc1ccc(/C=C/c2cc(O)cc(O)c2)cc1 [Resveratrol, resveratrol] |  |  |  | MTT pRK control (HEK293 cells): neutral
CC(N)C12CC3CC(CC(C3)C1)C2 (stereo not shown) [Rimantadine, rimantadine, reference compound] |  |  |  | MTT pRK control (HEK293 cells): neutral
O=c1c(O[C@@H]2O[C@@H](CO)[C@H](O)[C@H]2O)c(-c2ccc(O)cc2)oc2cc(O)cc(O)c12 [juglanin] |  |  |  | inhibition of 3a ion channel (SARS CoV 3a protein): most efficient
(–)epicatechin |  |  | not | 
(–)epigallocatechin |  |  | not | 
